Results as given in ChEMBL document CHEMBL3885881, “DrugMatrix”.

Species on record: Rattus norvegicus
Experiment: DrugMatrix - Regimen: Daily Repeat
Format: toxicity, organism-based, Sprague-Dawley
Set-up: regimen Daily Repeat, gender Male, age 6-8 weeks
Settings: in vivo, po, 72 h, route oral GAVAGE, time 3 day, vehicle .5 % CMC; for ABSOLUTE BASOPHIL / ABSOLUTE EOSINOPHIL / ABSOLUTE LYMPHOCYTE / ABSOLUTE MONOCYTE / ABSOLUTE SEGMENTED NEUTROPHIL / BASOPHIL / EOSINOPHIL / ERYTHROCYTE COUNT / HEMATOCRIT / HEMOGLOBIN / LEUKOCYTE COUNT / LYMPHOCYTE / MEAN CORPUSCULAR HEMOGLOBIN / MEAN CORPUSCULAR HEMOGLOBIN CONCENTRATION / MEAN CORPUSCULAR VOLUME / MONOCYTE / NEUTROPHIL / NUCLEATED RED BLOOD CELLS / PLATELET COUNT: tissue Blood; for ALANINE AMINOTRANSFERASE / ALBUMIN / ALKALINE PHOSPHATASE / ASPARTATE AMINOTRANSFERASE / BLOOD UREA NITROGEN / CARBON DIOXIDE / CHLORIDE / CHOLESTEROL / CREATINE PHOSPHOKINASE / CREATININE / GLUCOSE / LACTATE DEHYDROGENASE / LIPASE / PHOSPHORUS / POTASSIUM / SODIUM / TOTAL BILIRUBIN / TOTAL PROTEIN / URIC ACID: tissue Plasma

C=C1CC[C@H](O)C/C1=C/C=C1\CCC[C@]2(C)[C@@H]([C@H](C)/C=C/[C@H](C)C(C)C)CC[C@@H]12 [ERGOCALCIFEROL]
ABSOLUTE BASOPHIL (0 mg/kg, dose level Control): 0 CELLS/uL | ABSOLUTE EOSINOPHIL (0 mg/kg, dose level Control): 8.83 CELLS/uL | ABSOLUTE LYMPHOCYTE (0 mg/kg, dose level Control): 7222.33 CELLS/uL | ABSOLUTE MONOCYTE (0 mg/kg, dose level Control): 0 CELLS/uL | ABSOLUTE SEGMENTED NEUTROPHIL (0 mg/kg, dose level Control): 752.17 CELLS/uL | BASOPHIL (0 mg/kg, dose level Control): 0% | EOSINOPHIL (0 mg/kg, dose level Control): 0.17% | ERYTHROCYTE COUNT (0 mg/kg, dose level Control): 5.22 x10E6/uL | HEMATOCRIT (0 mg/kg, dose level Control): 32.6% | HEMOGLOBIN (0 mg/kg, dose level Control): 12.43 G/DL | LEUKOCYTE COUNT (0 mg/kg, dose level Control): 7.98 x10E3/uL | LYMPHOCYTE (0 mg/kg, dose level Control): 91.17% | MEAN CORPUSCULAR HEMOGLOBIN (0 mg/kg, dose level Control): 23.87 pg | MEAN CORPUSCULAR HEMOGLOBIN CONCENTRATION (0 mg/kg, dose level Control): 38.18 G/DL | MEAN CORPUSCULAR VOLUME (0 mg/kg, dose level Control): 62.48 fL | MONOCYTE (0 mg/kg, dose level Control): 0% | NEUTROPHIL (0 mg/kg, dose level Control): 8.67% | NUCLEATED RED BLOOD CELLS (0 mg/kg, dose level Control): 0 /100WBC | PLATELET COUNT (0 mg/kg, dose level Control): 1082.33 x10E3/uL | ALANINE AMINOTRANSFERASE (0 mg/kg, dose level Control): 42.17 u/L | ALBUMIN (0 mg/kg, dose level Control): 4.33 G/DL | ALKALINE PHOSPHATASE (0 mg/kg, dose level Control): 451.17 u/L | ASPARTATE AMINOTRANSFERASE (0 mg/kg, dose level Control): 76.17 u/L | BLOOD UREA NITROGEN (0 mg/kg, dose level Control): 13.33 mg/dL | CARBON DIOXIDE (0 mg/kg, dose level Control): 31.67 mmol/L | CHLORIDE (0 mg/kg, dose level Control): 96.5 MEQ/L | CHOLESTEROL (0 mg/kg, dose level Control): 78 mg/dL | CREATINE PHOSPHOKINASE (0 mg/kg, dose level Control): 216.5 u/L | CREATININE (0 mg/kg, dose level Control): 0.22 mg/dL | GLUCOSE (0 mg/kg, dose level Control): 137 mg/dL | LACTATE DEHYDROGENASE (0 mg/kg, dose level Control): 138.5 u/L | LIPASE (0 mg/kg, dose level Control): 8.67 u/L | PHOSPHORUS (0 mg/kg, dose level Control): 12.68 mg/dL | POTASSIUM (0 mg/kg, dose level Control): 6.23 MEQ/L | SODIUM (0 mg/kg, dose level Control): 143.47 MEQ/L | TOTAL BILIRUBIN (0 mg/kg, dose level Control): 0.15 mg/dL | TOTAL PROTEIN (0 mg/kg, dose level Control): 6.33 G/DL | URIC ACID (0 mg/kg, dose level Control): 1.1 mg/dL | ABSOLUTE BASOPHIL (1 mg/kg, dose level Low): 0 CELLS/uL | ABSOLUTE EOSINOPHIL (1 mg/kg, dose level Low): 30.67 CELLS/uL | ABSOLUTE LYMPHOCYTE (1 mg/kg, dose level Low): 8277.33 CELLS/uL | ABSOLUTE MONOCYTE (1 mg/kg, dose level Low): 0 CELLS/uL | ABSOLUTE SEGMENTED NEUTROPHIL (1 mg/kg, dose level Low): 658.67 CELLS/uL | BASOPHIL (1 mg/kg, dose level Low): 0% | EOSINOPHIL (1 mg/kg, dose level Low): 0.33% | ERYTHROCYTE COUNT (1 mg/kg, dose level Low): 5.18 x10E6/uL | HEMATOCRIT (1 mg/kg, dose level Low): 32.07% | HEMOGLOBIN (1 mg/kg, dose level Low): 12.3 G/DL | LEUKOCYTE COUNT (1 mg/kg, dose level Low): 8.97 x10E3/uL | LYMPHOCYTE (1 mg/kg, dose level Low): 92.33% | MEAN CORPUSCULAR HEMOGLOBIN (1 mg/kg, dose level Low): 23.7 pg | MEAN CORPUSCULAR HEMOGLOBIN CONCENTRATION (1 mg/kg, dose level Low): 38.37 G/DL | MEAN CORPUSCULAR VOLUME (1 mg/kg, dose level Low): 61.9 fL | MONOCYTE (1 mg/kg, dose level Low): 0% | NEUTROPHIL (1 mg/kg, dose level Low): 7.33% | NUCLEATED RED BLOOD CELLS (1 mg/kg, dose level Low): 0.33 /100WBC | PLATELET COUNT (1 mg/kg, dose level Low): 1019.33 x10E3/uL | ALANINE AMINOTRANSFERASE (1 mg/kg, dose level Low): 47 u/L | ALBUMIN (1 mg/kg, dose level Low): 4.37 G/DL | ALKALINE PHOSPHATASE (1 mg/kg, dose level Low): 374.33 u/L | ASPARTATE AMINOTRANSFERASE (1 mg/kg, dose level Low): 77.33 u/L | BLOOD UREA NITROGEN (1 mg/kg, dose level Low): 13.33 mg/dL | CARBON DIOXIDE (1 mg/kg, dose level Low): 31 mmol/L | CHLORIDE (1 mg/kg, dose level Low): 97.33 MEQ/L | CHOLESTEROL (1 mg/kg, dose level Low): 71.67 mg/dL | CREATINE PHOSPHOKINASE (1 mg/kg, dose level Low): 205 u/L | CREATININE (1 mg/kg, dose level Low): 0.28 mg/dL | GLUCOSE (1 mg/kg, dose level Low): 142 mg/dL | LACTATE DEHYDROGENASE (1 mg/kg, dose level Low): 139.33 u/L | LIPASE (1 mg/kg, dose level Low): 8 u/L | PHOSPHORUS (1 mg/kg, dose level Low): 13.07 mg/dL | POTASSIUM (1 mg/kg, dose level Low): 6.56 MEQ/L | SODIUM (1 mg/kg, dose level Low): 144.27 MEQ/L | TOTAL BILIRUBIN (1 mg/kg, dose level Low): 0.17 mg/dL | TOTAL PROTEIN (1 mg/kg, dose level Low): 6.43 G/DL | URIC ACID (1 mg/kg, dose level Low): 1.17 mg/dL | ABSOLUTE BASOPHIL (15 mg/kg, dose level High): 0 CELLS/uL | ABSOLUTE EOSINOPHIL (15 mg/kg, dose level High): 0 CELLS/uL | ABSOLUTE LYMPHOCYTE (15 mg/kg, dose level High): 7628 CELLS/uL | ABSOLUTE MONOCYTE (15 mg/kg, dose level High): 40.67 CELLS/uL | ABSOLUTE SEGMENTED NEUTROPHIL (15 mg/kg, dose level High): 1198 CELLS/uL | BASOPHIL (15 mg/kg, dose level High): 0% | EOSINOPHIL (15 mg/kg, dose level High): 0% | ERYTHROCYTE COUNT (15 mg/kg, dose level High): 5.54 x10E6/uL | HEMATOCRIT (15 mg/kg, dose level High): 34.3% | HEMOGLOBIN (15 mg/kg, dose level High): 13.2 G/DL | LEUKOCYTE COUNT (15 mg/kg, dose level High): 8.87 x10E3/uL | LYMPHOCYTE (15 mg/kg, dose level High): 86.67% | MEAN CORPUSCULAR HEMOGLOBIN (15 mg/kg, dose level High): 23.83 pg | MEAN CORPUSCULAR HEMOGLOBIN CONCENTRATION (15 mg/kg, dose level High): 38.5 G/DL | MEAN CORPUSCULAR VOLUME (15 mg/kg, dose level High): 61.97 fL | MONOCYTE (15 mg/kg, dose level High): 0.33% | NEUTROPHIL (15 mg/kg, dose level High): 13% | NUCLEATED RED BLOOD CELLS (15 mg/kg, dose level High): 0.33 /100WBC | PLATELET COUNT (15 mg/kg, dose level High): 1196.67 x10E3/uL | ALANINE AMINOTRANSFERASE (15 mg/kg, dose level High): 55 u/L | ALBUMIN (15 mg/kg, dose level High): 4.43 G/DL | ALKALINE PHOSPHATASE (15 mg/kg, dose level High): 367.33 u/L | ASPARTATE AMINOTRANSFERASE (15 mg/kg, dose level High): 84 u/L | BLOOD UREA NITROGEN (15 mg/kg, dose level High): 14.33 mg/dL | CARBON DIOXIDE (15 mg/kg, dose level High): 31.67 mmol/L | CHLORIDE (15 mg/kg, dose level High): 93.33 MEQ/L | CHOLESTEROL (15 mg/kg, dose level High): 74.33 mg/dL | CREATINE PHOSPHOKINASE (15 mg/kg, dose level High): 211.67 u/L | CREATININE (15 mg/kg, dose level High): 0.24 mg/dL | GLUCOSE (15 mg/kg, dose level High): 139.33 mg/dL | LACTATE DEHYDROGENASE (15 mg/kg, dose level High): 153 u/L | LIPASE (15 mg/kg, dose level High): 8.33 u/L | PHOSPHORUS (15 mg/kg, dose level High): 13.23 mg/dL | POTASSIUM (15 mg/kg, dose level High): 6.15 MEQ/L | SODIUM (15 mg/kg, dose level High): 144.7 MEQ/L | TOTAL BILIRUBIN (15 mg/kg, dose level High): 0.1 mg/dL | TOTAL PROTEIN (15 mg/kg, dose level High): 6.63 G/DL | URIC ACID (15 mg/kg, dose level High): 1.43 mg/dL
